Data as given in patent publication US20230233565A1, “A TREATMENT APPROACH INVOLVING KIF18A INHIBITION FOR CHROMOSOMALLY UNSTABLE TUMORS” (UNIVERSITY OF VERMONT, priority 2020, published 2023).

Tests used:
Format in all cases: cell-based
MDA-MB-231 cells [1] = assay: Mitotic spindle morphology analysis (multipolar spindles, centrioles, fixed cells)
Procedure: (§1) For experiments involving siRNA knockdown followed by drug treatment, the indicated concentrations of paclitaxel (Selleck Chemicals, Houston, Tex.), nocodazole (Selleck Chemicals, Houston, Tex.), and/or monastrol (Selleck Chemicals, Houston, Tex.) were added to cells 24 h after siRNA treatment. Three hours after drug addition, cells were either fixed and stained for immunofluorescence imaging or imaged live in a glass-bottom 24-well dish. To compare the effects of paclitaxel treatment to the effects of KIF18A KD in MDA-MB-231 and MCF10A cell lines, 10 nM of paclitaxel was added to cells 24 h before fixing and staining for immunofluorescence imaging.
Cells were grown on glass coverslips and fixed using either −20° C. methanol or 1% paraformaldehyde in −20° C. methanol. Cells were blocked with 20% goat serum in antibody diluting buffer (Abdil—TBS, 1% BSA, 0.1% Triton X-100, and 0.1% sodium azide) and incubated with the following primary antibodies: mouse anti-α-tubulin (DM1α) 1:500 (Millipore Sigma, Burlington Mass.) for one hour at room temperature (RT), human anti-centromere antibody (ACA) 1:250 (Antibodies Incorporated) overnight at 4° C., rabbit anti-γ-tubulin 1:500 (Abcam, Cambridge, Mass.) for one hour at RT, mouse anti-γ-tubulin 1:500 for one hour at RT (Abcam, Cambridge, Mass.), rabbit anti-KIF18A 1:100 (Bethyl Laboratories, Montgomery, Tex.) at 4° C. overnight, mouse anti-centrin-1 1:500 (Santa Cruz Biotechnology) for one hour at RT, and rabbit KIF18B 1:2000 (Shin et al., “Biased Brownian Motion as a Mechanism to Facilitate Nanometer-scale Exploration of the Microtubule Plus End by a Kinesin-8,” Proc National Acad Sci 112:E3826-35 (2015), which is hereby incorporated by reference in its entirety) for one hour at RT. Secondary antibodies conjugated to Alexa Fluor 488, 594, and 647 (Molecular Probes, Eugene, Oreg.) were used at concentrations of 1:15000 for one hour at RT. Coverslips were mounted onto glass slides using Prolong Gold anti-fade mounting medium with DAPI (Molecular Probes, Eugene, Oreg.).
(§2) To analyze mitotic spindle morphology, cells were fixed and stained for γ-tubulin, α-tubulin, and centrin-1. Enough optical slices spaced 200 nm apart were captured to visualize the entire 3-D structure of the spindle. Spindles with three or more visible microtubule-organizing centers were classified as multipolar. Cells were considered to have fragmented pericentriolar material (PCM) if they had supernumerary poles observed via γ-tubulin staining but lacked centrioles (centrin-1 puncta) at one or more of the poles. Intercentriolar distance, or the distance in microns between two centrioles in a pair, was measured from the center of one centriole to the center of the adjacent centriole.

MDA-MB-231 cells [2] = assay: Kinetic cell proliferation assay, siRNA plus UMK57 or DMSO
Procedure: HT29, LoVo, SW480, LS1034, HCC1806, HCT116, MCF10A, MDA-MB-231, and MDA-MB-468 cells were purchased from ATCC (Manassas, Va.). All cell lines were validated by STR DNA fingerprinting using the Promega GenePrint® 10 System according to manufacturer's instructions (Promega #B9510). HT29, LoVo, SW480, MDA-MB-231, and MDA-MB-468 cells were cultured in DMEM/F-12 medium (Gibco) supplemented with 10% FBS (Gibco) and 1% penicillin/streptomycin (pen/strep). LS1034 and HCC1806 cells were cultured in RPMI 1640 medium (Gibco) with 10% FBS and 1% pen/strep. […]
Cells were imaged in either a 96- or 24-well dish every two or four hours for up to five days using the Cytation 5 Cell Imaging Multi-Mode Reader (Biotek, Winooski, Vt.) driven by Gen5 software (Biotek, Winooski, Vt.). […] Between imaging reads, cells were incubated at 37° C. with 5% CO2 using the Biospa 8 Automated Incubator (Biotek, Winooski, Vt.). […] To determine rates of cell proliferation, the fold change in cells/mm^2 between the first and last reads of each well were calculated and normalized to the control for each experiment. […] For cytotoxicity assays, CellTox™ Green Dye (Promega, Madison, Wis.) was added to cell media prior to imaging, and the number of cells/mm^2 was recorded for both GFP and brightfield channels. […]

MDA-MB-231 cells [3] = assay: Mitotic index from fixed-cell images; conditions: 500 nM UMK57 in KIF18A-depleted cells, versus DMSO
Procedure: as §1
(§3) To measure the length of mitosis, live cells were imaged every two minutes for 16-20 hours using differential interference contrast (DIC) microscopy. The time between nuclear envelope breakdown (NEB) and anaphase onset (AO) was used to indicate the time a cell spent in mitosis. Mitotic index was measured using fixed-cell images by counting the number of mitotic cells divided by the total number of cells. All mitotic index fields were taken with a 40×objective. An unpaired t-test was used to determine statistical significance between control and KIF18A KD conditions for each cell line.

MDA-MB-231 cells [4] = assay: Live imaging with siR-tubulin (spindle pole splitting); conditions: UMK57 in KIF18A KD cells
Procedure: Cells were plated in a glass-bottom 24-well dish and treated with the indicated siRNA approximately 24 hours before imaging. Six hours before imaging, the cell culture media was replaced with CO2-independent media containing […] SiR-tubulin (Cytoskeleton). For conditions involving UMK57 or DMSO, the specified drug was added to the CO2-independent media with siR-tubulin. Cells were imaged every 2 minutes for 16-20 hours using a 40×0.75 NA objective (Nikon).

diploid MCF10A cells [5] = assay: Mitotic spindle morphology analysis (multipolar spindles, fixed cells); conditions: 10 nM paclitaxel, 24 h
Procedure: as §1, §2

diploid MCF10A cells [6] = assay: Mitotic index from fixed-cell images; conditions: 10 nM paclitaxel, 24 h
Procedure: as §1, §3

Q: What does the source list for `Cc1ccc(-c2csc3ncnc(N4CCCC4)c23)cc1` [UMK57]?
A: percentage of multipolar spindles (MDA-MB-231 cells [1]; 500 nM UMK57 in KIF18A KD cells, versus DMSO): small but significant increase in multipolar spindles; chromosome alignment defects in bipolar spindles (MDA-MB-231 cells [1]; UMK57 in KIF18A KD cells): without an obvious change in chromosome alignment defects; proliferation (MDA-MB-231 cells [2]; 500 nM UMK57 in KIF18A-depleted cells, versus DMSO): decreased proliferation; proliferation (MDA-MB-231 cells [2]; 500 nM UMK57 in control siRNA-treated cells): no impact on the proliferation; mitotic index (MDA-MB-231 cells [3]): increased; spindle pole splitting (MDA-MB-231 cells [4]): increased spindle pole splitting

Q: For `COC(=O)Nc1nc2ccc(C(=O)c3cccs3)cc2[nH]1` [nocodazole], which “multipolar spindles in KIF18A KD cells” value (MDA-MB-231 cells [1]; 5 μM nocodazole for 3 h, versus DMSO) is on record?
A: The value was “significantly fewer multipolar spindles”.

Q: Which multipolar spindles (diploid MCF10A cells [5]) does the source give for `CC(=O)O[C@H]1C(=O)[C@@]2(C)[C@H]([C@H](OC(=O)c3ccccc3)[C@]3(O)C[C@H](OC(=O)[C@H](O)[C@@H](NC(=O)c4ccccc4)c4ccccc4)C(C)=C1C3(C)C)[C@]1(OC(C)=O)CO[C@@H]1C[C@@H]2O` [paclitaxel] here?
A: Its multipolar spindles is “increased”.

Q: What about the “multipolar spindles in KIF18A KD cells” value (MDA-MB-231 cells [1]; 20 nM paclitaxel for 3 h, versus DMSO) of the same molecule?
A: Its value is “significantly fewer multipolar spindles”.

Q: What about the “mitotic defects (mitotic index, multipolar spindles)” value (MDA-MB-231 cells [1]; MDA-MB-231, KIF18A KD versus 10 nM paclitaxel (24 h)) of the same molecule?
A: The value was “produced similar mitotic defects”.

Q: What about the mitotic index (diploid MCF10A cells [6]) of the same molecule?
A: The mitotic index was “increased the mitotic index”.
